Measurements from article PMC6430500, “3-Fluoro-4-hydroxyprolines: Synthesis, Conformational Analysis, and Stereoselective Recognition by the VHL E3 Ubiquitin Ligase for Targeted Protein Degradation” (Journal of the American Chemical Society, 2018).

Columns and labels:
[1] = target: T1, VBC (Homo sapiens, UniProt P40337); assay: ITC of PROTACs, binary complex PROTAC–VBC; assay type: binding; conditions: for ΔG / ΔH / –TΔS / Kd: PROTAC in cell, VBC in syringe; for Kd: mean ± SEM
T1 construct: VHL (54–213), ElonginC (17–112) and; His6 (N, cleaved yes); made in house; host or cells: Escherichia coli BL21(DE3)
T1 sequence (P40337 54-213): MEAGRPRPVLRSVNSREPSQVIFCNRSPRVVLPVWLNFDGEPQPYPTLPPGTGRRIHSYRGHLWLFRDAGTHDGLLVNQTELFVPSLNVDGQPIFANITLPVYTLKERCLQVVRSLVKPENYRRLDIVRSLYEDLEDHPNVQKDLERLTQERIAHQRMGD
T1 sequence (Q15369 17-112 partner limits assumed): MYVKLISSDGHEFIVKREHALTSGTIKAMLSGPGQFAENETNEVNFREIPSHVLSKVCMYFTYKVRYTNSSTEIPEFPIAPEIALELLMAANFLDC
T1 sequence (Q15370 1-104 partner limits assumed): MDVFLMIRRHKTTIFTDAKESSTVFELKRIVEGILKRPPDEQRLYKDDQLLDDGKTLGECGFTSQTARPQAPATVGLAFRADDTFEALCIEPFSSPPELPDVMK
Description: (§1) structure (C2 R, C3 S, C4 R) assumed on the basis of unchanging stereogenic centres in the synthesis.
(§2) Final R(F) = 0.033, wR(F 2) = 0.085 for 275 parameters and 3901 reflections with I > 2σ(I) (corresponding R-values based on all 4067 reflections = 0.035 and 0.086, respectively), CCDC […]
(§3) Protein expression and purification.
(§4) Wild-type versions of human proteins VHL (UniProt accession number: P40337), ElonginC […]
(§5) expression. For expression of VBC, N-terminally His6-tagged VHL (54–213), ElonginC (17–112) and ElonginB (1–104) were co- expressed in Escherichia coli BL21(DE3) at 24 °C for 16 h using 0.3 mM isopropyl β-D -1-thiogalactopyranoside (IPTG). E. coli cells were lysed using a pressure cell homogenizer (Stansted Fluid Power) and lysate clarified by centrifugation. His6-tagged VCB was purified on a HisTrap FF affinity column (GE Healthcare) by elution with an imidazole gradient. The His6tag was removed using TEV protease and the untagged complex dialyzed into low -concentration imidazole buffer. VCB was then flowed through the HisTrap FF column a second time, allowing impurities to bind, as the complex eluted without binding. VCB was then additionally purified by anion exchange and size-exclusion chromatography using ResourceQ and Superdex-75 columns (GE Healthcare), respectively. The final purified complex was stored in 20 mM Bis–Tris, pH 7, 150 mM sodium chloride and 1 mM dithiothreitol (DTT). Brd2BD1 (71–194), and Brd4BD2 (333–460) were expressed with an N-terminal His6 tag in E. coli BL21(DE3) at 18 °C for 20 h using 0.2 mM IPTG.
(§6) His6-tagged BDs were purified on nickel Sepharose 6 fast flow beads (GE Healthcare) by elution with increasing concentrations of imidazole. For crystallography the His6-tagged BD was cleaved with TEV protease and dialyzed into low-concentration imidazole buffer. The BD was then flowed over the nickel beads a second time to remove impurities and protease. BDs were then additionally purified by size-exclusion chromatography using a Superdex-75 column. The BDs were purified by size-exclusion chromatography using a Superdex-75 column. The final purified proteins were stored in 20 mM 4-(2-hydroxyethyl)-1-piperazineethanesulfonic acid (HEPES), pH 7.5, 150 mM sodium chloride and 1 mM DTT. All chromatography purification steps were performed using Äkta FPLC purification systems (GE Healthcare) or glass econo-columns (Bio-Rad) at room temperature.
(§7) Isothermal titration calorimetry (ITC) of peptides and ligands
(§8) Titrations were performed on an ITC200 micro-calorimeter (GE Healthcare). The peptides were dissolved in buffer (20 mM Bis–Tris propane, 100 mM NaCl, 1 mM tris(2-carboxyethyl)phosphine […]
(§9) (TCEP), pH 7.4) at 100 µM. The compounds were titrated against 10 µM VBC complex, equilibrated in the same buffer. The titrations consisted of 20 injections of 2 µL of peptide solution at a rate of 0.5 µL/s at 120 s time intervals. An initial injection of ligand (0.4 µL) was made and discarded during data analysis. All experiments were performed at 25°C while stirring at 650 rpm.
(§10) Ligands 14a- b were diluted from DMSO stock solution to 300 µM in buffer (20 mM Bis-Tris propane, 150 mM NaCl, 1 mM TCEP, pH 7.4). The compounds were titrated against 30 µM VBC complex, equilibrated in the same buffer. The final concentration of DMSO in each experiment was […]
(§11) The data were fitted to a single-binding-site model using the MicroCal PEAQ-ITC analysis software provided by the manufacturer to obtain the stoichiometry n, the dissociation constant K d, and the enthalpy of binding ΔH . The reported values are the mean ± s.e.m. from independent measurements.
(§12) Isothermal titration calorimetry (ITC)of PROTACs
(§13) The titrations were all performed as reverse mode (protein in syringe, ligand in cell) and consisted of 19 injections of 2 µl protein solution (20 mM Bis–Tris propane, 100 mM NaCl, 1 mM tris(2-carboxyethyl)phosphine (TCEP), pH 7.4) at a rate of 0.5 µl/s at 120 s time intervals. An initial injection (0.4 µl) was made and discarded during data analysis. […]

[2] = target: T2, Brd2 (Homo sapiens, UniProt P25440); assay: BET protein degradation in HeLa cells, Western blot; assay type: cell-based; conditions: 24 h
T2 construct: endogenous in cells; host or cells: HeLa
T2 sequence (P25440 whole entry): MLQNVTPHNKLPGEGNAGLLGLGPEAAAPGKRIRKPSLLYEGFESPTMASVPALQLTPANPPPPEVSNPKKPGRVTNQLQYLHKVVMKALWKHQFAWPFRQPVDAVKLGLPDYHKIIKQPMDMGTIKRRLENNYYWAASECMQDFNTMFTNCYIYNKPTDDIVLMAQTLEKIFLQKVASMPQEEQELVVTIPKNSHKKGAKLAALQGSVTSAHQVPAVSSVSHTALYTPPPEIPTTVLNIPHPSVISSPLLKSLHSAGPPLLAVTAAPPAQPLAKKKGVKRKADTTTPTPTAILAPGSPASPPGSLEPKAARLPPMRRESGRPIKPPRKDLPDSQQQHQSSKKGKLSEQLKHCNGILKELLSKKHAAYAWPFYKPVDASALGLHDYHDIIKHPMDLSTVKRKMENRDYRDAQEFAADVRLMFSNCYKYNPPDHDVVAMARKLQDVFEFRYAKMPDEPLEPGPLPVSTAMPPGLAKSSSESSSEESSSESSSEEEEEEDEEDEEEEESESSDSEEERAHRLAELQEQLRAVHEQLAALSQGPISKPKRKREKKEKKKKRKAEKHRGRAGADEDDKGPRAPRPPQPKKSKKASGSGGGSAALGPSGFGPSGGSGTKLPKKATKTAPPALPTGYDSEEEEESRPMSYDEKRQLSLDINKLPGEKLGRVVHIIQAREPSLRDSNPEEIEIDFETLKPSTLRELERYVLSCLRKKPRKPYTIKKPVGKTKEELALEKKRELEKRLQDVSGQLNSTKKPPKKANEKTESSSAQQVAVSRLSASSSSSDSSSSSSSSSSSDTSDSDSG
Procedure: (§14) HeLa and A549 cells were kept in DMEM (Gibco) supplemented with 10%(v/v) FBS (Gibco), 2 mM L-glutamine (Gibco), penicillin (100 units /mL) and streptomycin (100 µ g/mL) (Gibco). MV4;11 cells were kept in RPMI 1640 supplemented with 10%(v/v) FBS (Gibco), 2 mM L-glutamine (Gibco), penicillin (100 units /mL) and streptomycin (100 µg/mL) (Gibco). Cells were kept at 37 °C, 5% CO2.
(§15) Testing compounds in cells
(§16) HeLa cells (3 x 105) were seeded onto each well on a six-well plate 24 h before treatment with test compounds. To treat the cells with the test compounds, medium was replaced with fresh medium containing specified concentration of test compounds for specified time. At the end of treatment, cells were washed with PBS and then were lysed by applying RIPA buffer (Sigma, R0278) supplemented with Protease inhibitor (Roche, # 04693159001) and Benzonase (Sigma, E1014). Lysate was clarified by centrifugation (20,000 x g, 10 min, 4 °C). Supernatant was collected and protein concentration of was determined by BCA assay. The rest of the clarified lysate was kept at -80° C before further […]
(§17) Protein on gel was transferred to nitrocellulose membrane using Bio-Rad Transblot system according to manufacturer guidelines. Blots were probed with anti- Brd4 (AbCam, ab128874), anti-Brd3 (AbCam, ab50818), anti- Brd2 (AbCam, ab139690) and anti-β-actin (Cell Signaling, no. 4970) antibodies. Blots were developed with secondary anti-mouse IgG (Licor, 926-32210) or anti-rabbit IgG (Licor, 926- 32213) antibodies from Licor and bands visualized using Bio-Rad ChemiDoc MP […]
(§18) Western Blot Quantification#
(§19) Image processing and band intensity quantification were performed using Bio-Rad Image Lab software version 6.0.0. Reported band intensities are normalized to loading control, i.e., β-actin or tubulin for total lysates.

[3] = target: T3, Brd3 (Homo sapiens, UniProt Q15059); assay: as above; assay type: cell-based; conditions: 24 h
T3 construct: endogenous in cells; host or cells: HeLa
T3 sequence (Q15059 whole entry): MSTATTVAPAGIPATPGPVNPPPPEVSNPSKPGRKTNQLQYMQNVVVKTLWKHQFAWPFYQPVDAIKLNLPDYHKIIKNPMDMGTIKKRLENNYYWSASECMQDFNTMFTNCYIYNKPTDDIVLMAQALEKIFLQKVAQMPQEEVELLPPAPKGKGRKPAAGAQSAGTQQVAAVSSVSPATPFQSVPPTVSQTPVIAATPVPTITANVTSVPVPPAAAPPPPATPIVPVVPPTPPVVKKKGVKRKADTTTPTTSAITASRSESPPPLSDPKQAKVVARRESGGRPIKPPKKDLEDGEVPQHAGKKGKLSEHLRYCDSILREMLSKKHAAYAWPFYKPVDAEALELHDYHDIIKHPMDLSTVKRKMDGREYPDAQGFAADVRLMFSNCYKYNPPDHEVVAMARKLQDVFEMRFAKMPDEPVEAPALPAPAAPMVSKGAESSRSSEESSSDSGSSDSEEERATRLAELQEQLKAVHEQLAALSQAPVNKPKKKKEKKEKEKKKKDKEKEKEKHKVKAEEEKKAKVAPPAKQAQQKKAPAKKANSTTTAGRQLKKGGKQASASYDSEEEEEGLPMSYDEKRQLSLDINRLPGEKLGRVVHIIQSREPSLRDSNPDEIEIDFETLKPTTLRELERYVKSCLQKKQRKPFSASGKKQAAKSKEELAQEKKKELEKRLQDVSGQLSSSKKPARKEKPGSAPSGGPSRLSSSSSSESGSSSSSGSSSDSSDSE
Procedure: as §14, §15, §16, §17, §18, §19

[4] = target: T4, Brd2BD1 (Homo sapiens, UniProt P25440); assay: ITC of PROTACs, binary titration with Brd2BD1; assay type: binding; conditions: PROTAC in cell, Brd2BD1 in syringe
T4 construct: Brd2BD1 (71–194),; made in house; host or cells: E. coli BL21(DE3)
T4 sequence (P25440 71-194): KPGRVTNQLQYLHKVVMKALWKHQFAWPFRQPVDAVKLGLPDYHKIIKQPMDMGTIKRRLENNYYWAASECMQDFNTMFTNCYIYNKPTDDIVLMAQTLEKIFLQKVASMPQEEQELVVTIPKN
Description: as §1, §2, §3, §4, §5, §6, §7, §8, §9, §10, §11, §12, §13

fold weaker ligand for VBC ([1]; 15b compared to 15a) [fold] | ΔG [1] [kcal/mol] | ΔH [1] [kcal/mol] | –TΔS [1] [kcal/mol] | Kd [1] [nM] | DC50 [2] [nM] | DC50 [3] [nM] | Kd [4] [nM] | ΔG [4] [kcal/mol] | ΔH [4] [kcal/mol] | –TΔS [4] [kcal/mol] | SMILES
2.5 | -8.49 ± 0.07 | -5.0 ± 0.2 | -3.7 ± 0.2 | 603 ± 74 | ~3000 | ~3000 | 111 ± 6 | -9.49 ± 0.03 | -14.1 ± 0.6 | 4.9 ± 0.6 | Cc1ncsc1-c1ccc(CNC(=O)[C@@H]2[C@H](F)[C@@H](O)CN2C(=O)[C@@H](NC(=O)COCCOCCOCCNC(=O)C[C@@H]2N=C(c3ccc(Cl)cc3)c3c(sc(C)c3C)-n3c(C)nnc32)C(C)(C)C)cc1 [15b]
– | -9.01 ± 0.02 | -7.9 ± 0.3 | -1.1 ± 0.2 | 249 ± 6 | ~10 | ~10 | 97 ± 0.6 | -9.57 ± 0.01 | -13.7 ± 0.3 | 4.2 ± 0.3 | Cc1ncsc1-c1ccc(CNC(=O)[C@@H]2[C@@H](F)[C@@H](O)CN2C(=O)[C@@H](NC(=O)COCCOCCOCCNC(=O)C[C@@H]2N=C(c3ccc(Cl)cc3)c3c(sc(C)c3C)-n3c(C)nnc32)C(C)(C)C)cc1 [15a]
